Values of other authors as cited in patent US20220087927A1, “ANTIMICROBIAL AGENT” (priority 2020, published 2022).

Columns and labels:
Conditions in all cases: suspension 10^7-10^8 per ml
Staphylococcus aureus = tested on: Staphylococcus aureus
Pseudomonas aeruginosa = tested on: Pseudomonas aeruginosa
[1] = tested on: E. coli (Escherichia coli)
[2] = tested on: Candida (candida albicians)
[3] = tested on: Koji mold (asprogillus brasiliensis)

Row | Compound | MIC (minimum growth prevention concentration) (Staphylococcus aureus) [%] | MIC (minimum growth prevention concentration) (Pseudomonas aeruginosa) [%] | MIC (minimum growth prevention concentration) [1] [%] | MIC (minimum growth prevention concentration) [2] [%] | MIC (minimum growth prevention concentration) [3] [%]
1 | OCCCCO [butylene glycol] | 16 | 8 | 10 | 14 | 18
2 | CCO [ethanol] | 9 | 5 | 5 | 7 | 5
